# According to article PMC9378504 (Journal of medicinal chemistry, 2022):
# Tests used:
# NSD2 [1] = target: T1, NSD2 (Homo sapiens, UniProt O96028); experiment: Western blotting of NSD2 protein level in H929 cells; format: cell-based
# T1 sequence (O96028 1-1365): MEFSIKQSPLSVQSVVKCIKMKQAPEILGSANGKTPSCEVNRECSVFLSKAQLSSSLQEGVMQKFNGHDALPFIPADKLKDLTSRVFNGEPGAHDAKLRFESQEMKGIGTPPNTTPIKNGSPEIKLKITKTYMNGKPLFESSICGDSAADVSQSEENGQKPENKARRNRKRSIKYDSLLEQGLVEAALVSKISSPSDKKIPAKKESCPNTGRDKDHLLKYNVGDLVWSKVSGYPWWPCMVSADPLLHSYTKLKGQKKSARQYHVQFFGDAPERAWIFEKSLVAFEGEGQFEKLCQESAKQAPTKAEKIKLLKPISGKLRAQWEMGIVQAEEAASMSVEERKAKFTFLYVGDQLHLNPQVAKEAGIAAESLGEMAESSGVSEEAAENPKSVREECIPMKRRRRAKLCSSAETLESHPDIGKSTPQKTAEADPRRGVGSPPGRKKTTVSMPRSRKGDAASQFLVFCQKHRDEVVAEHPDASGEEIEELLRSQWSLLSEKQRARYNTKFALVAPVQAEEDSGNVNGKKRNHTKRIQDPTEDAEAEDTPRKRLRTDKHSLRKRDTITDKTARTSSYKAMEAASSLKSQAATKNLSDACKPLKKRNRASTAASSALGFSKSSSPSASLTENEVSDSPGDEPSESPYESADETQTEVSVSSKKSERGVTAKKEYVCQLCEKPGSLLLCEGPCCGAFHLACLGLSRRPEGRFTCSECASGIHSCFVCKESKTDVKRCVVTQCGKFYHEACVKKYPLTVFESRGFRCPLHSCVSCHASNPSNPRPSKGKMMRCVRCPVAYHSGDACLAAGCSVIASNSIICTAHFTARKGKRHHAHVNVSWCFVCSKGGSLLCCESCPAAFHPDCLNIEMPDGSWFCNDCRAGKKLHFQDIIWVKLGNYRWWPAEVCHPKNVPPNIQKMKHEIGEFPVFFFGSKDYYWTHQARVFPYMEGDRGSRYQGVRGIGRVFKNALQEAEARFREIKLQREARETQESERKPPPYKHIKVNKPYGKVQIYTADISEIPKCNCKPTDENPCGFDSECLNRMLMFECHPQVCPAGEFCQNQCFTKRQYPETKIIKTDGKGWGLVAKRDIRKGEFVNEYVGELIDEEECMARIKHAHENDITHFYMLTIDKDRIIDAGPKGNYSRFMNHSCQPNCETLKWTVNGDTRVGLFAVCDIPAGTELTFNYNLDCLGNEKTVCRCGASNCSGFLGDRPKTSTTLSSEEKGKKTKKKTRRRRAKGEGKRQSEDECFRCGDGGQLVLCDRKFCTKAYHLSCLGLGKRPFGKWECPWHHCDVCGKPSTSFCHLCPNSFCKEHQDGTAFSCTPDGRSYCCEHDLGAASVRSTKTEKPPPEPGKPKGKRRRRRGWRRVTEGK
# NSD2 [2] = target: T1, NSD2; experiment: Western blotting of NSD2 protein level in KMS11 cells; format: cell-based
# NSD2 [3] = target: T1, NSD2; experiment: Western blotting of NSD2 protein level in 293FT cells; format: cell-based; settings: 293FT cells; for NSD2 degradation: SI Figure S1A
# GSPT1 [4] = experiment: Western blotting of GSPT1 protein level in 293FT cells; format: cell-based; settings: SI Figure S1A
# IKZF3 [5] = target: T2, IKZF3 (Homo sapiens, UniProt Q96SW2+Q9UKT9); experiment: Western blotting of IKZF3 protein level in 293FT cells; format: cell-based; settings: 293FT cells, SI Figure S1A
# T2 sequence (Q9UKT9 whole entry): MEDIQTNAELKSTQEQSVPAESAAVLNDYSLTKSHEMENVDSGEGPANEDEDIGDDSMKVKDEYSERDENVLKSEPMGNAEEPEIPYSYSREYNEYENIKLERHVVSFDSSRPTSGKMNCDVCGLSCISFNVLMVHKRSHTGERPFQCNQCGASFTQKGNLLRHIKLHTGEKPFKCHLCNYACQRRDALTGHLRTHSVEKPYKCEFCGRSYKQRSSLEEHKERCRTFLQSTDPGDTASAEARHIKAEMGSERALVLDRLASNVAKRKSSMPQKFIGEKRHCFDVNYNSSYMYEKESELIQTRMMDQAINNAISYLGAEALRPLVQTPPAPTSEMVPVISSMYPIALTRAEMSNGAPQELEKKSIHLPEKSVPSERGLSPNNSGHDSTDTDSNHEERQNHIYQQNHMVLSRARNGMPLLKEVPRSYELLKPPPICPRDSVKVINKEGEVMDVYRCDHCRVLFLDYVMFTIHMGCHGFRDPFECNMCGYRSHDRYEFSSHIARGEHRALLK
# T2 sequence (Q96SW2 whole entry): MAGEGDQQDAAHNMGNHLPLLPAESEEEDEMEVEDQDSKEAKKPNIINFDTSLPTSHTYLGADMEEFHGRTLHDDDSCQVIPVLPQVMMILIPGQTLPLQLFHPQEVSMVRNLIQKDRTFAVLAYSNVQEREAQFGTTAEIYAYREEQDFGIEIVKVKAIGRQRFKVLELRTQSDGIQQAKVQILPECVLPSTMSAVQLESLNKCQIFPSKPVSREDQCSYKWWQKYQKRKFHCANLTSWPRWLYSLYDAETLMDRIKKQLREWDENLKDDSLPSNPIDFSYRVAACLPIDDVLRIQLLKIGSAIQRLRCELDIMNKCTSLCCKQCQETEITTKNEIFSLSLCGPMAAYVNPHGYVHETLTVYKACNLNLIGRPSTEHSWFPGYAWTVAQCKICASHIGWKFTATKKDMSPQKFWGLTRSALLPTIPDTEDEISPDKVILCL
# T2 sequence (Q16531 whole entry partner): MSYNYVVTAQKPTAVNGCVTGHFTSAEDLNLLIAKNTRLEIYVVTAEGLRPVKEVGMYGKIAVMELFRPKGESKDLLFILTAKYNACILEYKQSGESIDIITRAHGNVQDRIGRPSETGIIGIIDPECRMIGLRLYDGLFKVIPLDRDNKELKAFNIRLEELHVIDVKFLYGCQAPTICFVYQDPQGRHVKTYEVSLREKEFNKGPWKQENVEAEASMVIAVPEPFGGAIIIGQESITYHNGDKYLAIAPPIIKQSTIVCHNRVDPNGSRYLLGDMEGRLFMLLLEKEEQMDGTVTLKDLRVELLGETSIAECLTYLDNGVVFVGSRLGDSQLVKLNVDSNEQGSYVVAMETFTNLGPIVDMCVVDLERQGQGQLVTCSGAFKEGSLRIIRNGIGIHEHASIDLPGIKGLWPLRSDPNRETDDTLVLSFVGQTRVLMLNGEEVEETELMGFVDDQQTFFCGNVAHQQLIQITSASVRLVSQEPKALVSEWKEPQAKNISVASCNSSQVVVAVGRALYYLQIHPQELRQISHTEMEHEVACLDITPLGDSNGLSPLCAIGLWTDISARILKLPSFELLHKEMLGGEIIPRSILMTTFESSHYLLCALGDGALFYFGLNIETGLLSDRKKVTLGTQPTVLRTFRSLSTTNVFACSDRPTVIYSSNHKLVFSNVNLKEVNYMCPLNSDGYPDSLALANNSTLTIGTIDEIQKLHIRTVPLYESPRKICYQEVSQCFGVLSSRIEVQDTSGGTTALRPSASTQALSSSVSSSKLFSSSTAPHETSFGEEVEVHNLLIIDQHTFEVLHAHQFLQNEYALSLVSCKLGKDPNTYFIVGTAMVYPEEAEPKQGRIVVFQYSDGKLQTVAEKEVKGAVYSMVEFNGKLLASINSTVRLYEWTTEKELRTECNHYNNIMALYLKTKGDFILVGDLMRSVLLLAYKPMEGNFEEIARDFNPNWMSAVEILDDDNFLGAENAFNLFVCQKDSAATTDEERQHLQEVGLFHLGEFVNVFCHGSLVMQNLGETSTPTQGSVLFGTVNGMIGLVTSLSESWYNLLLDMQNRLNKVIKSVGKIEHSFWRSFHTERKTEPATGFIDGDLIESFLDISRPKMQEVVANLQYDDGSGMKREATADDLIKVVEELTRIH
# KMS11 cells = experiment: Cell growth inhibition assay in KMS11 cells; format: cell-based, Human; settings: 2.5 μM, 8 days
# IKZF3 [6] = target: T2, IKZF3; experiment: Western blotting of IKZF3 protein level in KMS11 cells; format: cell-based; settings: 2.5 μM, 72 h
# IKZF1 [7] = target: T3, IKZF1 (Homo sapiens, UniProt Q13422+Q96SW2); experiment: Western blotting of IKZF1 protein level in KMS11 cells; format: cell-based; settings: 2.5 μM, 72 h
# T3 sequence (Q13422 whole entry): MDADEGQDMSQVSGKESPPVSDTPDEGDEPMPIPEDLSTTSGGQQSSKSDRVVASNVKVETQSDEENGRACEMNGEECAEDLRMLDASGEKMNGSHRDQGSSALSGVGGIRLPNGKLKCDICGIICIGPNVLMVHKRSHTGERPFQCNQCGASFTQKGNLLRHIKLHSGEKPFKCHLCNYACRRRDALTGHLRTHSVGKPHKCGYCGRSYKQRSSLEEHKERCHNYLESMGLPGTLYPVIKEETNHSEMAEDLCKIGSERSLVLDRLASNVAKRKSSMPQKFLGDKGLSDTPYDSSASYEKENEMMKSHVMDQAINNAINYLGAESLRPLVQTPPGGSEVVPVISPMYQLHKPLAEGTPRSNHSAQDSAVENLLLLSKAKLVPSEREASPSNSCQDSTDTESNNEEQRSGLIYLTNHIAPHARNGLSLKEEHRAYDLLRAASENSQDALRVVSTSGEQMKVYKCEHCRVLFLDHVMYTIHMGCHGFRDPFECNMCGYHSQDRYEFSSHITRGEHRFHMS
# T3 sequence (Q96SW2 whole entry): as the sequence (Q96SW2 whole entry) above
# T3 sequence (Q16531 whole entry partner): as the sequence (Q16531 whole entry partner) above
# GSPT1 [8] = experiment: Western blotting of GSPT1 protein level in KMS11 cells; format: cell-based, Human; settings: 2.5 μM, 72 h
# GSPT1 [9] = experiment: Western blotting of GSPT1 protein level in H929 cells; format: cell-based, Human; settings: 2.5 μM, 72 h
# IKZF1 [10] = target: T3, IKZF1; experiment: Western blotting of IKZF1 protein level in H929 cells; format: cell-based; settings: 2.5 μM, 72 h
# IKZF3 [11] = target: T2, IKZF3; experiment: Western blotting of IKZF3 protein level in H929 cells; format: cell-based; settings: 2.5 μM, 72 h
# H929 cells = experiment: Cell growth inhibition assay in H929 cells; format: cell-based, Human; settings: 2.5 μM, 8 days
# NSD2-PWWP1 domain = target: T4, NSD2-PWWP1 domain (Homo sapiens, UniProt O96028); experiment: Isothermal titration calorimetry; settings: ITC, inverse titration, 50 mM Tris-HCl pH 6.8, 25 °C; mean ± SD from two independent experiments
# T4 sequence (O96028 208-369): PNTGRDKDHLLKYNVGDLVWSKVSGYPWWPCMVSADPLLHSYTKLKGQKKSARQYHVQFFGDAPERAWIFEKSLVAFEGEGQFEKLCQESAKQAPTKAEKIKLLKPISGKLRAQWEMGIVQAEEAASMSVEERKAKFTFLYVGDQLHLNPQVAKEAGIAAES
NSD2 degradation (NSD2 [1]; SI Figure S1B),NSD2 degradation (NSD2 [2]; SI Figure S1B),NSD2 degradation (NSD2 [3]; 2.5 μM),NSD2 degradation (NSD2 [3]; 10 μM),NSD2 degradation (NSD2 [3]; 0.1 and 0.5 μM),IKZF3 degradation (IKZF3 [5]),IKZF3 protein level (IKZF3 [6]),"NSD2 degradation (NSD2 [1]; 2.5 μM, 72 h)",IKZF1 protein level (IKZF1 [7]),"NSD2 degradation (NSD2 [2]; 2.5 μM, 72 h)",IKZF1 protein level (IKZF1 [10]),IKZF3 protein level (IKZF3 [11]),Kd (NSD2-PWWP1 domain),Compound,"NSD2 protein level (NSD2 [3]; 2.5 and 10 μM, 48 h, Figure 2)",GSPT1 degradation (GSPT1 [4]),Cell growth inhibition (KMS11 cells),GSPT1 degradation (GSPT1 [8]),GSPT1 degradation (GSPT1 [9]),Cell growth inhibition (H929 cells)
ineffective in degrading NSD2,ineffective in degrading NSD2,confirmed the NSD2 degradation effect,hook affect,did not induce NSD2 degradation,did not degrade GSPT1 or IKZF3,,,,,,,,"Cc1ncsc1-c1ccc(CNC(=O)[C@@H]2C[C@@H](O)CN2C(=O)[C@@H](NC(=O)CCOCCOCCNC(=O)c2ccc(NC(=O)c3ccc(CN(C(=O)c4ccc5c(c4)OCC(=O)N5)C4CC4)cc3)cc2)C(C)(C)C)cc1 [Compound 1, N-Cyclopropyl-N-(4-((4-((2-(2-(3-(((S)-1-((2S,4R)-4-hydroxy-2-((4-(4-methylthiazol-5-yl)benzyl)carbamoyl)pyrrolidin-1-yl)-3,3-dimethyl-1-oxobutan-2-yl)amino)-3-oxopropoxy)ethoxy)ethyl)-carbamoyl)phenyl)carbamoyl)benzyl)-3-oxo-3,4-dihydro-2H-benzo[b][1,4]oxazine-7-carboxamide]",clearly reduced the NSD2 protein level with a slight hook effect at 10μM,did not degrade GSPT1 or IKZF3,,,,
,,,,,,did not display any degradation effect,did not induce obvious NSD2 degradation,did not display any degradation effect,did not induce obvious NSD2 degradation,did not display any degradation effect,did not display any degradation effect,,"CN1C(=O)CCC(N2C(=O)c3cccc(NCC(=O)NCCCOc4ccc(NC(=O)c5ccc(CN(C(=O)c6ccc7c(c6)OCC(=O)N7)C6CC6)cc5)nc4)c3C2=O)C1=O (stereo not shown) [Compound 17, N-Cydopropyl-N-(4-((5-(3-(2-((2-(1-methyl-2,6-dioxopiperidin-3-yl)-1,3-dioxoisoindolin-4-yl)amino)acetamido)propoxy)pyridin-2-yl)carbamoyl)benzyl)-3-oxo-3,4-dihydro-2H-benzo[b][1,4]oxazine-7-carboxamide]",,,showed little effect on cell growth inhibition,did not degrade GSPT1,did not degrade GSPT1,showed little effect on cell growth inhibition
,,,,,,,did not induce obvious NSD2 degradation,clearly reduced the IKZF1 protein level,did not induce obvious NSD2 degradation,clearly reduced the IKZF1 protein level,,did not show any appreciable binding,"CC(C)N(Cc1ccc(C(=O)Nc2ccc(OCCCNC(=O)CNc3cccc4c3C(=O)N(C3CCC(=O)NC3=O)C4=O)cn2)cc1)C(=O)c1ccc2c(c1)OCC(=O)N2 (stereo not shown) [Compound 18, N-(4-((5-(3-(2-((2-(2,6-Dioxopiperidin-3-yl)-1,3-dioxoisoindolin-4-yl)amino)acetamido)propoxy)pyridin-2-yl)carbamoyl)benzyl)-N-isopropyl-3-oxo-3,4-dihydro-2H-benzo[b][1,4]oxazine-7-carboxamide]",,,displayed some growth inhibition,did not degrade GSPT1,did not degrade GSPT1,displayed some growth inhibition
,,,,,,did not display any degradation effect,,did not display any degradation effect,,did not display any degradation effect,did not display any degradation effect,,"O=C1COc2cc(C(=O)N(Cc3ccc(C(=O)Nc4ccncn4)cc3)C3CC3)ccc2N1 [UNC6934, reference compound]",,,,,,
